In ChEMBL document CHEMBL2062412, “Structure and bioassay of triterpenoids and steroids isolated from Sinocalamus affinis” (J Nat Prod, 2012) one finds IC50 data, which are given here for five molecules.

The target of this experiment is T1, Tyrosine-protein phosphatase non-receptor type 1 (Homo sapiens, UniProt P18031).
T1 sequence (P18031 whole entry): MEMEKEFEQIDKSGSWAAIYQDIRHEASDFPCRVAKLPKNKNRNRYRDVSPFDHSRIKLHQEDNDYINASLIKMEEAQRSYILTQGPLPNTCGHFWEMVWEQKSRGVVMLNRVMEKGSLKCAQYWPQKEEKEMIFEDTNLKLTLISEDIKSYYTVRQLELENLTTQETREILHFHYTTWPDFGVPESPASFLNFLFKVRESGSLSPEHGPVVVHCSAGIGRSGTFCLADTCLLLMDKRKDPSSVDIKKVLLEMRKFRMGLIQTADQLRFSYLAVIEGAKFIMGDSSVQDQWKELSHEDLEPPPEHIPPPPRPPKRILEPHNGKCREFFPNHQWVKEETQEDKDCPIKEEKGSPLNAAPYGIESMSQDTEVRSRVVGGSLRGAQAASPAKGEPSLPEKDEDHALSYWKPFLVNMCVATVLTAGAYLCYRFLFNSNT
Nature of the experiment: Inhibition of GST-tagged human recombinant PTP1B using para-nitrophenyl phosphate as substrate by spectrophotometric analysis.
In general, IC50 refers to the point on the concentration scale where inhibition reaches its midpoint. `CC(C)[C@@H]1C[C@@H](O)[C@H]2[C@@]1(CO)CC[C@@]1(C)[C@H]3C(=CC[C@]21C)C1=CC[C@H](O)C(C)(C)[C@H]1C[C@@H]3O`: the IC50 amounted to 6.8 µM.
Turning to `CC(C)[C@@H]1CC(=O)[C@H]2[C@@]1(CO)CC[C@@]1(C)[C@H]3C(=CC[C@]21C)C1=C(C[C@@H]3O)C(C)(C)[C@@H](O)CC1`, the IC50 came to 6.8 µM.
For `CC(C)[C@@H]1C[C@@H](O)[C@H]2[C@@]1(CO)CC[C@@]1(C)[C@H]3C(=CC[C@]21C)C1=C(C[C@@H]3O)[C@](C)(CO)[C@@H](O)CC1`, the IC50 is 6.8 µM.
The same measure for `CC(C)[C@@H]1[C@H](O)[C@@H](O)[C@H]2[C@@]1(CO)CC[C@@]1(C)[C@H]3C(=CC[C@]21C)C1=C(C[C@@H]3O)C(C)(C)[C@@H](O)CC1`: 6.8 µM; for `CC(C)[C@@H]1C[C@@H](O)[C@H]2[C@@]1(CO)CC[C@@]1(C)[C@H]3C(=CC[C@]21C)C1=C(C[C@@H]3O)C(C)(C)[C@@H](O)CC1`: 6.8 µM.
